Measurements as given in patent EP1016409B1, “FREEZE DRIED COMPOSITION COMPRISING GLYCOSPHINGOLIPIDS” (KIRIN BEER KABUSHIKI KAISHA, priority 1997, dated 1998).

Assays:
Assay type in all cases: physicochemical
[1] = Lyophilized preparations with Polysorbate 20 alone: re-solubility immediately after lyophilization; conditions: KRN7000 200 µg/ml, no excipient, reconstituted in 1 ml distilled water for injection
Protocol: (§1) Next, 20 mg of the active component (KRN7000) was weighed and stirred in 100 ml of the Polysorbate solutions having a variety of concentrations in a heated bath to 80°C for 20 minutes in order to form a solution. After cooling with running water, the mixture was filtered through a 0.22 µm filter, and transparent colorless glass vials having a volume of 5 ml were charged with a 1 ml portion of each of a variety of solutions and subjected to lyophilizaiton. Lyophilization was carried out under the condition of preliminary freezing at -40°C for 2 hours and drying at -20°C for 24 hours, 10°C for 12 hours, and finally at 25°C for 5 hours to give the lyophilized product. The degree of vacuum was set at 0.1 Torr or less during drying step.
After the lyophilization step, the lyophilized composition was reconstituted in 1 ml of distilled water for injection, left standing for 30 minutes, and solubility was judged when the foams generated on reconstituiton disappeared.
(§2) The solubility was judged by cleaning the outside of the vial and placing it beneath the white light source in a darkroom for observation with naked eye at the position of a luminous intensity of about 5,000 lux. When the sample was clear with no precipitates, it was judged that the active component was dissolved.

[2] = Excipient appropriate to lyophilization 2: re-solubility after storage; conditions: lyophilized, KRN7000 200 µg/ml, Polysorbate 20 0.5%, 25°C
Protocol: The lyophilized preparations having mannitol and sucrose added thereto were observed on their variation with the passage of time.
as §1, with “First, Polysorbate 20 was dissolved in distilled water in a concentration of 0.5%, and the saccharides were dissolved in such concentrations as listed in Table 7. Next,” for “Next,”, “solvents” for “Polysorbate solutions having a variety of concentrations”, “solutions thus obtained” for “solutions”, “lyophilization.” for “lyophilizaiton.”
(§3) After the lyophilization step, the lyophilized composition was stored at 25°C. After storage for 1 month, the lyophilized composition was reconstituted in 1 ml of distilled water for injection, left standing for 30 minutes, and solubility was judged when the foams generated on reconstitution disappeared. The samples judged in solution were further stored, and judged again of their solubility after 4 months.
as §2

[3] = Additives for improving re-solubility during storage, mannitol as excipient; conditions: lyophilized, KRN7000 200 µg/ml, Polysorbate 20 0.5%, 25°C
Protocol: as §1, with “First, Polysorbate 20 was dissolved in distilled water in a concentration of 0.5%, and mannitol and a variety of additives such concentrations as listed in Table 8. Next,” for “Next,”, “solvents” for “Polysorbate solutions having a variety of concentrations”, “solutions thus obtained” for “solutions”, “lyophilization.” for “lyophilizaiton.”
as §3, §2

[4] = Addition effects of sodium deoxycholate and histidine in the absence of a sugar; conditions: lyophilized, KRN7000 200 µg/ml, Polysorbate 20 0.5%, 1%, no sugar, 50°C
Protocol: Addition effects of sodium deoxycholate and histidine in the absence of a sugar as the excipient was examined.
as §1, with “First, Polysorbate 20 was dissolved in distilled water in a concentration of 0.5%, and histidine or sodium deoxycholate in a concentration of 1.0%. Next,” for “Next,”, “solvents” for “Polysorbate solutions having a variety of concentrations”, “solutions thus obtained” for “solutions”, “lyophilization.” for “lyophilizaiton.”
After the lyophilization step, the lyophilized composition thus obtained was stored at 50°C. After storage for 3 days or 2 weeks, the lyophilized composition was reconstituted in 1 ml of distilled water for injection, left standing for 30 minutes, and solubility was judged when the foams generated on reconstitution disappeared. […]

Re-solubility immediately after lyophilization (by naked eye) ([1]; Polysorbate 20 0.5%): + (+ not dissolved (or deposited))
Re-solubility immediately after lyophilization (by naked eye) ([1]; Polysorbate 20 1.0%): + (+ not dissolved (or deposited))
Re-solubility immediately after lyophilization (by naked eye) ([1]; Polysorbate 20 2.0%): + (+ not dissolved (or deposited))
Re-solubility after storage (by naked eye) ([2]; Mannitol 10%, 1 month): - (- dissolved)
Re-solubility after storage (by naked eye) ([2]; Mannitol 10%, 4 months): + (+ not dissolved (or deposited))
Re-solubility after storage (by naked eye) ([2]; Sucrose 9.6%, 1 month): - (- dissolved)
Re-solubility after storage (by naked eye) ([2]; Sucrose 9.6%, 4 months): + (+ not dissolved (or deposited))
Re-solubility after storage (by naked eye) ([3]; Mannitol 10%, Sodium deoxycholate, 1%, 1 month): - (- dissolved)
Re-solubility after storage (by naked eye) ([3]; Mannitol 10%, Sodium deoxycholate, 1%, 4 months): - (- dissolved)
Re-solubility after storage (by naked eye) ([3]; Mannitol 10%, no additive, 1 month): - (- dissolved)
Re-solubility after storage (by naked eye) ([3]; Mannitol 10%, no additive, 4 months): + (+ not dissolved (or deposited))
Re-solubility after storage (by naked eye) ([3]; Mannitol 15%, Glycerol, 0.1%, 1 month): + (+ not dissolved (or deposited))
Re-solubility after storage (by naked eye) ([3]; Mannitol 15%, Glycerol, 0.1%, 4 months): + (+ not dissolved (or deposited))
Re-solubility after storage (by naked eye) ([3]; Mannitol 15%, Glycerol, 1%, 1 month): + (+ not dissolved (or deposited))
Re-solubility after storage (by naked eye) ([3]; Mannitol 15%, Glycerol, 1%, 4 months): + (+ not dissolved (or deposited))
Re-solubility after storage (by naked eye) ([3]; Mannitol 15%, PEG400, 1%, 1 month): + (+ not dissolved (or deposited))
Re-solubility after storage (by naked eye) ([3]; Mannitol 15%, PEG400, 1%, 4 months): + (+ not dissolved (or deposited))
Re-solubility after storage (by naked eye) ([3]; Mannitol 15%, Sodium deoxycholate, 1%, 1 month): + (+ not dissolved (or deposited))
Re-solubility after storage (by naked eye) ([3]; Mannitol 15%, Sodium deoxycholate, 1%, 4 months): + (+ not dissolved (or deposited))
Re-solubility after storage (by naked eye) ([3]; Mannitol 15%, no additive, 1 month): + (+ not dissolved (or deposited))
Re-solubility after storage (by naked eye) ([3]; Mannitol 15%, no additive, 4 months): + (+ not dissolved (or deposited))
Re-solubility after storage (by naked eye) ([4]; Histidine, 2 weeks): + (+ not dissolved (or deposited))
Re-solubility after storage (by naked eye) ([4]; Sodium deoxycholate, 3 days): + (+ not dissolved (or deposited))
Structure (SMILES): CCCCCCCCCCCCCCCCCCCCCCCCCC(=O)N[C@@H](CO[C@H]1O[C@H](CO)[C@H](O)[C@H](O)[C@H]1O)[C@H](O)[C@H](O)CCCCCCCCCCCCCC [KRN7000, (2S,3S,4R)-1-(α-D-galactopyranosyloxy)-2-hexacosanoylamino-3,4-octadecanediol]
